Patent US11753446B2, “Beta-hairpin peptidomimetics” (POLYPHOR AG, priority 2014, dated 2023)
Like-named read-outs stand apart in the source and are kept apart here. Where a SMILES comes first, the peptide text is derived from it. Bridges are numbered along the chain shown (N, C = ends). [ ]: non-standard residue; d: D form. Tle = CC(C)(C)[C@H](N)C(=O)O; dDab = NCC[C@@H](N)C(=O)O; Orn = NCCC[C@H](N)C(=O)O; Dab = NCC[C@H](N)C(=O)O; Dap = NC[C@H](N)C(=O)O

Legend:
[1] = system: Acinetobacter baumannii DSM 30008; format: cell-based
Experimental: (§1) Stock solutions were kept at +4° C., light protected.
(§2) The selective antimicrobial activities of the peptides were determined in 96-well plates (Greiner, polystyrene) by the standard NCCLS broth microdilution method (National Committee for Clinical Laboratory Standards 1993. Methods for dilution antimicrobial susceptibility tests for bacteria that grow aerobically, 3rd ed. Approved standard M7-A6; National Committee for Clinical laboratory standards, Wayne, Pa.) with slight modifications. Inocula of the microorganisms were diluted into Mueller-Hinton II (MH, cation adjusted) broth and compared with a 0.5 McFarland standard to give appr. 10^6 colony forming units (CFU)/mL. Aliquots (90 μl) of inoculate were added to 10 μl of MH broth+P-80 (Polysorbate 80, 0.002% final concentration) containing the peptide in serial two-fold dilutions. The following microorganisms were used to determine antibiotic selectivity of the peptides: Escherichia coli ATCC 25922, Klebsiella pneumoniae ATCC 13883 and Acinetobacter baumannii DSM 30008.

[2] = system: Escherichia coli ATCC 25922; format: cell-based
Experimental: as §1, §2

[3] = system: Klebsiella pneumoniae ATCC 13883; format: cell-based
Experimental: as §1, §2

[4] = system: human red blood cells (hRBC); experiment: Hemolysis: hemolytic activity at 100 μg/mL, 1 h at 37° C.
Experimental: Lyophilized peptides were weighed on a Microbalance (Mettler MT5) and dissolved in sterile water to a final concentration of 1 mg/mL. Stock solutions were kept at +4° C., light protected.
The peptides were tested for their hemolytic activity against human red blood cells (hRBC). Fresh hRBC were washed three times with phosphate buffered saline (PBS) and centrifuged for 5 min at 3000×g. Compounds (100 μg/mL) were incubated with 20% hRBC (v/v) for 1 h at 37° C. and shaking at 300 rpm. The final erythrocyte concentration was approximately 0.9×10^9 cells/mL. A value of 0% and 100% cell lyses, respectively, was determined by incubation of hRBC in the presence of PBS containing 0.001% acetic acid and 2.5% Triton X-100 in H2O, respectively. The samples were centrifuged, the supernatants were 8-fold diluted in PBS buffer and the optical densities (OD) were measured at 540 nm.
Percent hemolysis was calculated as follows: (OD540peptide/OD540H2O)×100%.

[5] = Mueller-Hinton II broth, 18-20 hours at 35° C.

SMILES	Acinetobacter baumannii DSM 30008 MIC ([1]; DSM 30008) [µg/mL]	Escherichia coli ATCC 25922 MIC ([2]; ATCC 25922) [µg/mL]	Klebsiella pneumoniae ATCC 13883 MIC ([3]; ATCC 13883) [µg/mL]	Hemolysis at 100 μg/mL ([4]; red cells of human, 1 h, 100) [%]	Acinetobacter baumannii DSM 30008 MIC [1, 5] [µg/mL]	Escherichia coli ATCC 25922 MIC [2, 5] [µg/mL]	Klebsiella pneumoniae ATCC 13883 MIC [3, 5] [µg/mL]	Hemolysis at 100 μg/mL ([4]; 100 μg/mL, 20% hRBC, 1 h at 37° C.) [%]
CC(C)C[C@@H]1NC(=O)[C@H](CCCNC(=N)N)NC(=O)[C@@H](CCN)NC(=O)[C@H](Cc2ccc(O)cc2)NC(=O)[C@@H]2CSSC[C@H](NC1=O)C(=O)N[C@@H](Cc1ccc(O)cc1)C(=O)N[C@@H](C(C)C)C(=O)N[C@@H](CCCN)C(=O)N[C@H](CCN)C(=O)N[C@@H](CCN)C(=O)N[C@@H](Cc1c[nH]c3ccccc13)C(=O)N[C@@H](Cc1ccc(O)cc1)C(=O)N[C@@H](Cc1ccc(O)cc1)C(=O)N2 [Example 22, cyclo(-Leu-Cys-Tyr-Val-Orn-^DDab-Dab-Trp-Tyr-Tyr-Cys-Tyr-^DDab-Arg-)] (HELM PEPTIDE1{C.Y.V.[Orn].[NCC[C@@H](N[*:1])C(=O)[*:2]].[Dab].W.Y.Y.C.Y.[NCC[C@@H](N[*:1])C(=O)[*:2]].R.L}$PEPTIDE1,PEPTIDE1,1:R3-10:R3|PEPTIDE1,PEPTIDE1,1:R1-14:R2$$$V2.0)	0.5	0.5	1	6				
CC(C)C[C@@H]1NC(=O)[C@@H]2CCCN2C(=O)[C@@H](C)NC(=O)[C@H](CO)NC(=O)[C@@H]2CC(=O)NCC[C@H](NC1=O)C(=O)N[C@@H](Cc1ccc(O)cc1)C(=O)N[C@@H](CCN)C(=O)N[C@@H](CCN)C(=O)N[C@@H](CCN)C(=O)N[C@@H](CCN)C(=O)N[C@@H](Cc1c[nH]c3ccccc13)C(=O)N[C@@H](CCN)C(=O)N[C@@H](C(C)(C)C)C(=O)N2 [Example 26, cyclo(-Leu-Dab-Tyr-Dab-Dab-Dab-Dab-Trp-Dab-tBuGly-Asp-Ser-^DAla-Pro-)] (HELM PEPTIDE1{D.S.[dA].P.L.[Dab].Y.[Dab].[Dab].[Dab].[Dab].W.[Dab].[CC(C)(C)[C@H](N[*:1])C(=O)[*:2]]}$PEPTIDE1,PEPTIDE1,1:R3-6:R3|PEPTIDE1,PEPTIDE1,1:R1-14:R2$$$V2.0)	2	2	1	1				
CC(C)C[C@@H]1NC(=O)[C@H](CCCNC(=N)N)NC(=O)[C@@H](CCN)NC(=O)[C@H](C(C)C)NC(=O)[C@@H]2CSSC[C@H](NC1=O)C(=O)N[C@@H](Cc1ccc(O)cc1)C(=O)N[C@@H](C)C(=O)N[C@@H](CCCN)C(=O)N[C@H](CCN)C(=O)N[C@@H](CCN)C(=O)N[C@@H](Cc1c[nH]c3ccccc13)C(=O)N[C@@H](C)C(=O)N[C@@H](Cc1ccc(O)cc1)C(=O)N2 [Example 23, cyclo(-Leu-Cys-Tyr-Ala-Orn-^DDab-Dab-Trp-Ala-Tyr-Cys-Val-^DDab-Arg-)] (HELM PEPTIDE1{A.[Orn].[NCC[C@@H](N[*:1])C(=O)[*:2]].[Dab].W.A.Y.C.V.[NCC[C@@H](N[*:1])C(=O)[*:2]].R.L.C.Y}$PEPTIDE1,PEPTIDE1,8:R3-13:R3|PEPTIDE1,PEPTIDE1,1:R1-14:R2$$$V2.0)	0.75	2	1	1				
CC(C)C[C@@H]1NC(=O)[C@H](CCCNC(=N)N)NC(=O)[C@@H](CCN)NC(=O)[C@H](C(C)C)NC(=O)[C@@H]2CSSC[C@H](NC1=O)C(=O)N[C@@H](Cc1ccc(O)cc1)C(=O)N[C@@H](C)C(=O)N[C@@H](CCCN)C(=O)N[C@H](CCN)C(=O)N[C@@H](CCN)C(=O)N[C@@H](Cc1ccccc1)C(=O)N[C@@H](C)C(=O)N[C@@H](Cc1ccc(O)cc1)C(=O)N2 [Example 19, cyclo(-Leu-Cys-Tyr-Ala-Orn-^DDab-Dab-Phe-Ala-Tyr-Cys-Val-^DDab-Arg-)] (HELM PEPTIDE1{A.[Orn].[NCC[C@@H](N[*:1])C(=O)[*:2]].[Dab].F.A.Y.C.V.[NCC[C@@H](N[*:1])C(=O)[*:2]].R.L.C.Y}$PEPTIDE1,PEPTIDE1,8:R3-13:R3|PEPTIDE1,PEPTIDE1,1:R1-14:R2$$$V2.0)	1	0.5	1	1				
CC(C)C[C@@H]1NC(=O)[C@H](CCCNC(=N)N)NC(=O)[C@H]2CCCN2C(=O)[C@H](C(C)C)NC(=O)[C@@H]2CSSC[C@H](NC1=O)C(=O)N[C@@H](Cc1ccc(O)cc1)C(=O)N[C@@H](C)C(=O)N[C@@H](CCCN)C(=O)N[C@H](CCN)C(=O)N[C@@H](CCN)C(=O)N[C@@H](Cc1c[nH]c3ccccc13)C(=O)N[C@@H](C)C(=O)N[C@@H](C(C)C)C(=O)N2 [Example 3, cyclo(-Leu-Cys-Tyr-Ala-Orn-^DDab-Dab-Trp-Ala-Val-Cys-Val-^DPro-Arg-)] (HELM PEPTIDE1{A.[Orn].[NCC[C@@H](N[*:1])C(=O)[*:2]].[Dab].W.A.V.C.V.[dP].R.L.C.Y}$PEPTIDE1,PEPTIDE1,8:R3-13:R3|PEPTIDE1,PEPTIDE1,1:R1-14:R2$$$V2.0)	1	2	1	4				
CC(C)C[C@@H]1NC(=O)[C@H](CCCNC(=N)N)NC(=O)[C@@H](CCN)NC(=O)[C@H](C(C)(C)C)NC(=O)[C@@H]2CSSC[C@H](NC1=O)C(=O)N[C@@H](Cc1ccc(O)cc1)C(=O)N[C@@H](CC(N)=O)C(=O)N[C@@H](CCCN)C(=O)N[C@H](CCN)C(=O)N[C@@H](CCN)C(=O)N[C@@H](Cc1c[nH]c3ccccc13)C(=O)N[C@@H](CO)C(=O)N[C@@H](Cc1ccc(O)cc1)C(=O)N2 [Example 64, cyclo(-Leu-Cys-Tyr-Asn-Orn-^DDab-Dab-Trp-Ser-Tyr-Cys-tBuGly-^DDab-Arg-)] (cyclo(C[Tle][dDab]RLCYN[Orn][dDab][Dab]WSY); disulfide 1-6)					1.125	1	1	1
CC(C)[C@@H]1NC(=O)[C@@H]2CCCN2C(=O)[C@@H](C)NC(=O)[C@H]([C@@H](C)O)NC(=O)[C@H](CO)NC(=O)[C@H](C(C)(C)C)NC(=O)[C@H](CCN)NC(=O)[C@H](Cc2c[nH]c3ccccc23)NC(=O)[C@H](CCN)NC(=O)[C@@H](CCN)NC(=O)[C@H](CCN)NC(=O)[C@H](CCN)NC(=O)[C@H](Cc2ccc(O)cc2)NC(=O)[C@H](CN)NC1=O [Example 46, cyclo(-Val-Dap-Tyr-Dab-Dab-^DDab-Dab-Trp-Dab-tBuGly-Ser-Thr-^DAla-Pro-)] (cyclo([Dab][Dab][dDab][Dab]W[Dab][Tle]ST[dA]PV[Dap]Y))	1	1	0.5	0				
CC(C)C[C@@H]1NC(=O)[C@H](CCCNC(=N)N)NC(=O)[C@@H](CCN)NC(=O)[C@H](C(C)C)NC(=O)[C@@H]2CSSC[C@H](NC1=O)C(=O)N[C@@H](Cc1ccc(O)cc1)C(=O)N[C@@H](CO)C(=O)N[C@@H](CCCN)C(=O)N[C@H](CCN)C(=O)N[C@@H](CCN)C(=O)N[C@@H](Cc1c[nH]c3ccccc13)C(=O)N[C@@H](CC(N)=O)C(=O)N[C@@H](Cc1ccc(O)cc1)C(=O)N2 [Example 52, cyclo(-Leu-Cys-Tyr-Ser-Orn-^DDab-Dab-Trp-Asn-Tyr-Cys-Val-^DDab-Arg-)] (HELM PEPTIDE1{C.V.[NCC[C@@H](N[*:1])C(=O)[*:2]].R.L.C.Y.S.[Orn].[NCC[C@@H](N[*:1])C(=O)[*:2]].[Dab].W.N.Y}$PEPTIDE1,PEPTIDE1,1:R3-6:R3|PEPTIDE1,PEPTIDE1,1:R1-14:R2$$$V2.0)	1.25	0.75	1.5	1				
